Assay results: publication PMC10745882, “Investigation of Drug-Interaction Potential for Arthritis Dietary Supplements: Chondroitin Sulfate, Glucosamine, and Methylsulfonylmethane” (Molecules, 2023)

What was measured:
Assay type in all cases: in vitro ADME
CYP3A4(M) = target: T1, CYP3A4(M) (Homo sapiens, UniProt P08684); experiment: CYP inhibition assay in human liver microsomes (LC-MS/MS cocktail), midazolam to 1-OH-midazolam
T1 construct: Pooled human liver microsomes were purchased from BD Gentest; tissue BD Gentest; host or cells: pooled human liver microsomes
Description: For the experimental method, the reference method was used. […] The reaction mixture, excluding NGS, underwent pre-incubation at 37 °C for 5 min, followed by further incubation with NGS for 30 min in a water bath. […] Post incubation, the reaction was halted by adding 50 µL ice-cold 1% formic acid acetonitrile. After centrifugation at 13,200 rpm for 5 min, the supernatant was collected from the sample and subjected to analysis via an LC-MS/MS system. All experiments were performed in triplicate.
For the experimental method, the reference method was used. […] The HPLC mobile phases comprised (A) 0.1% formic acid and (B) 0.1% formic acid in 90% acetonitrile. […] The total run time was 11.0 min, and the injection volume was 5 µL. Mass detection was conducted in the positive ion mode using multiple reaction monitoring (MRM). Specific MRM transitions for each analyte are detailed in Table S4.

CYP2C19 = target: T2, CYP2C19 (Homo sapiens, UniProt P33261); experiment: CYP inhibition assay in human liver microsomes (LC-MS/MS cocktail), mephenytoin to 4-OH-mephenytoin
T2 construct: Pooled human liver microsomes were purchased from BD Gentest; tissue BD Gentest; host or cells: pooled human liver microsomes
Description: (§1) For the experimental method, the reference method was used. Briefly, incubation mixtures were composed of 0.5 mg/mL human liver microsomes; varying concentrations of CS in DW (0.1, 0.3, 1, 3, 10, 30, 100, and 200 µM) or MSM in DW (0.1, 0.3, 1, 3, 10, 30, 100, 300, and 1000 µM) or GCS in DMSO (0.1, 0.3, 1, 3, 10, 30, 100, 300, and 1000 µM); a substrate mixture in DMSO (40 µM phenacetin for CYP1A2; 2.5 µM coumarin for CYP2A6; 80 µM bupropion for CYP2B6; 10 µM diclofenac for CYP2C9; 80 µM [±]-mephenytoin for CYP2C19; 5 µM dextromethorphan for CYP2D6; 2.5 µM midazolam and 30 µM testosterone for CYP3A4); and an NADPH generating system (NGS; 0.1 M glucose-6-phosphate, 10 mg/mL β-NADP^+, and 1 U/mL glucose-6-phosphate dehydrogenase) in a total volume of 200 µL potassium phosphate buffer (0.1 M, pH 7.4). The reaction mixture, excluding NGS, underwent pre-incubation at 37 °C for 5 min, followed by further incubation with NGS for 30 min in a water bath. Well-established selective CYP inhibitors were employed as positive controls (40 µM ketoconazole for CYP3A4, 50 µM furafyllin for CYP1A2, 10 µM quinidine for CYP2D6, 125 µM ticlopidine for CYP2C19 and CYP2B6, 10 µM 8-methoxsalen for CYP2A6, and 10 µM sulfaphenazole for CYP2C9). Post incubation, the reaction was halted by adding 50 µL ice-cold 1% formic acid acetonitrile. After centrifugation at 13,200 rpm for 5 min, the supernatant was collected from the sample and subjected to analysis via an LC-MS/MS system. All experiments were performed in triplicate.
(§2) For the experimental method, the reference method was used. The LC-MS/MS system utilized in this study consisted of an Agilent 1260 binary pump HPLC system coupled with the Agilent 6460 Triple Quadrupole mass spectrometer (Agilent Technologies, Santa Clara, CA, USA), featuring an electrospray ionization source. Chromatographic separation was achieved using a Fortis C8 column (2.1 × 100 mm, 5.0 µm; Fortis Technologies Ltd., Neston, UK). The HPLC mobile phases comprised (A) 0.1% formic acid and (B) 0.1% formic acid in 90% acetonitrile. A gradient elution method was employed with an initial solvent B concentration of 15% and a flow rate of 0.25 mL/min. […] The total run time was 11.0 min, and the injection volume was 5 µL. Mass detection was conducted in the positive ion mode using multiple reaction monitoring (MRM). Specific MRM transitions for each analyte are detailed in Table S4.

CYP3A4(T) = target: T3, CYP3A4(T) (Homo sapiens, UniProt P08684); experiment: CYP inhibition assay in human liver microsomes (LC-MS/MS cocktail), testosterone to 6-β-OH-Testosterone
T3 construct: Pooled human liver microsomes were purchased from BD Gentest; tissue BD Gentest; host or cells: pooled human liver microsomes
Description: as §1, §2

[1] = test system: seven CYP isozymes (CYP1A2, CYP2A6, CYP2B6, CYP2C9, CYP2C19, CYP2D6, CYP3A4); experiment: CYP inhibition assay in human liver microsomes, statements on all tested isozymes
Description: as §1
For the experimental method, the reference method was used. The LC-MS/MS system utilized in this study consisted of an Agilent 1260 binary pump HPLC system coupled with the Agilent 6460 Triple Quadrupole mass spectrometer (Agilent Technologies, Santa Clara, CA, USA), featuring an electrospray ionization source. Chromatographic separation was achieved using a Fortis C8 column (2.1 × 100 mm, 5.0 µm; Fortis Technologies Ltd., Neston, UK). The HPLC mobile phases comprised (A) 0.1% formic acid and (B) 0.1% formic acid in 90% acetonitrile. […]

CYP1A2 = target: T4, CYP1A2 (Homo sapiens, UniProt P05177); experiment: CYP inhibition assay in human liver microsomes (LC-MS/MS cocktail), phenacetin to acetaminophen
T4 construct: Pooled human liver microsomes were purchased from BD Gentest; tissue BD Gentest; host or cells: pooled human liver microsomes
T4 sequence (P05177 1-516): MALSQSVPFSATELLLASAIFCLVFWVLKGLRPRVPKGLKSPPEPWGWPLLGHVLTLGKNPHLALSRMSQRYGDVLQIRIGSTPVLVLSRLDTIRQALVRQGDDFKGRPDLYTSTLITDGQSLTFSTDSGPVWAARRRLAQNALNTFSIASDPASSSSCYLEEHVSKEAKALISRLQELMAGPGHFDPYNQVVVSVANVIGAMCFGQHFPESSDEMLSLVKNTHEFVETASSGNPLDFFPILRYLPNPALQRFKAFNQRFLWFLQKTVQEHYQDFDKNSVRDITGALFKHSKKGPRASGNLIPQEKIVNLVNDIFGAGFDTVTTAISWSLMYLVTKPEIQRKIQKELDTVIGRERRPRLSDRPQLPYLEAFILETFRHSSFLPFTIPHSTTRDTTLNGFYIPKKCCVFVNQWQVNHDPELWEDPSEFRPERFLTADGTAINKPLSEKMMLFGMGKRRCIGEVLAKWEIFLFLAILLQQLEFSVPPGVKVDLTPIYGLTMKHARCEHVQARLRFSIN
Description: as §1, §2

T1 sequence (P08684 whole entry): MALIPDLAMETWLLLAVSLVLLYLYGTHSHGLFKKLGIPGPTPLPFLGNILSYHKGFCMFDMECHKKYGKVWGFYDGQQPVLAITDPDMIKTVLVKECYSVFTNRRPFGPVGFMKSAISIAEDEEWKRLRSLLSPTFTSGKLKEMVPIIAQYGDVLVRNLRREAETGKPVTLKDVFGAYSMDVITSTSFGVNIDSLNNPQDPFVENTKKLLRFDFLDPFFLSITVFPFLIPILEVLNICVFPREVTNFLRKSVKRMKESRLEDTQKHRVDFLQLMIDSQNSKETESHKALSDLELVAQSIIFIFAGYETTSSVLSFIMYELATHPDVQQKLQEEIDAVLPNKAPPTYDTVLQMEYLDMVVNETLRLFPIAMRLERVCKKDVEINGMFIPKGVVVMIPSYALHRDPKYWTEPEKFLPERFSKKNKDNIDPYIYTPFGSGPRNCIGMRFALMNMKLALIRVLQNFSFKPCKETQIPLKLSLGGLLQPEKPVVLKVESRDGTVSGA
T3 sequence (P08684 whole entry): as above
T2 sequence (P33261 whole entry): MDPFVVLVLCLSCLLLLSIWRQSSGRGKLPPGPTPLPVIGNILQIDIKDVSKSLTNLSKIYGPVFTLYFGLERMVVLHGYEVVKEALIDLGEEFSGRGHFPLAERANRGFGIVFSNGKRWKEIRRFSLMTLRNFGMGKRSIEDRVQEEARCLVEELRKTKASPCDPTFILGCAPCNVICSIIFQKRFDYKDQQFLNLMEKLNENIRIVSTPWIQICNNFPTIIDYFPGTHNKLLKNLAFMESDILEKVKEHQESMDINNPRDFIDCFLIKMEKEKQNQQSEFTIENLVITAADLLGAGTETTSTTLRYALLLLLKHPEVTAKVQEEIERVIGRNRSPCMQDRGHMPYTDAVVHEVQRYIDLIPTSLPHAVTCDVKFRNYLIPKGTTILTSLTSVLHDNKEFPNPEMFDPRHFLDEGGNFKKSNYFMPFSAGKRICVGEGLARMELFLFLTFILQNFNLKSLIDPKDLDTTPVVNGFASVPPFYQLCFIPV

With `N[C@H]1C(O)O[C@H](CO)[C@@H](O)[C@@H]1O` (stereo partly drawn) [GCS, glucosamine] as the compound, how does the “Remaining Activities (% of Control, n = 3)” value (CYP3A4(M); test substance 0.3 μM) read?
The value was 104.4 ± 13.5 % of Control.

What about the “Remaining Activities (% of Control, n = 3)” value (CYP3A4(M); test substance 1 μM) of the same compound?
The value was 103.5 ± 3.2 % of Control.

And the “Remaining Activities (% of Control, n = 3)” value (CYP3A4(M); test substance 3 μM)?
The value was 98.3 ± 1.9 % of Control.

And the “Remaining Activities (% of Control, n = 3)” value (CYP3A4(M); test substance 10 μM)?
The value was 97.2 ± 1.5 % of Control.

And the “Remaining Activities (% of Control, n = 3)” value (CYP3A4(M); test substance 30 μM)?
The value was 96.9 ± 6.1 % of Control.

And the “Remaining Activities (% of Control, n = 3)” value (CYP3A4(M); test substance 100 μM)?
Its value is 95.2 ± 8.2 % of Control.

What about the “Remaining Activities (% of Control, n = 3)” value (CYP3A4(M); test substance 300 μM) of the same compound?
Its value is 91.0 ± 3.3 % of Control.

And the “Remaining Activities (% of Control, n = 3)” value (CYP3A4(M); test substance 1000 μM)?
The value was 88.7 ± 12.1 % of Control.

And the “Remaining Activities (% of Control, n = 3)” value (CYP2C19; test substance 0.3 μM)?
Its value is 128.4 ± 27.9 % of Control.

What about the “Remaining Activities (% of Control, n = 3)” value (CYP2C19; test substance 1 μM) of the same compound?
Its value is 102.5 ± 3.0 % of Control.

And the “Remaining Activities (% of Control, n = 3)” value (CYP2C19; test substance 3 μM)?
The value was 102.6 ± 8.8 % of Control.

What about the “Remaining Activities (% of Control, n = 3)” value (CYP2C19; test substance 10 μM) of the same compound?
Its value is 101.9 ± 4.3 % of Control.

And the “Remaining Activities (% of Control, n = 3)” value (CYP2C19; test substance 30 μM)?
Its value is 90.5 ± 8.7 % of Control.

What about the “Remaining Activities (% of Control, n = 3)” value (CYP2C19; test substance 100 μM) of the same compound?
The value was 100.3 ± 3.7 % of Control.

What about the “Remaining Activities (% of Control, n = 3)” value (CYP2C19; test substance 300 μM) of the same compound?
Its value is 95.5 ± 5.6 % of Control.

And the “Remaining Activities (% of Control, n = 3)” value (CYP2C19; test substance 1000 μM)?
The value was 88.7 ± 7.3 % of Control.

What about the “Remaining Activities (% of Control, n = 3)” value (CYP3A4(T); test substance 0.3 μM) of the same compound?
Its value is 92.8 ± 0.6 % of Control.

What about the “Remaining Activities (% of Control, n = 3)” value (CYP3A4(T); test substance 1 μM) of the same compound?
The value was 92.4 ± 0.9 % of Control.

And the “Remaining Activities (% of Control, n = 3)” value (CYP3A4(T); test substance 3 μM)?
Its value is 91.1 ± 3.1 % of Control.

What about the “Remaining Activities (% of Control, n = 3)” value (CYP3A4(T); test substance 10 μM) of the same compound?
The value was 91.7 ± 4.4 % of Control.

And the “Remaining Activities (% of Control, n = 3)” value (CYP3A4(T); test substance 30 μM)?
Its value is 91.8 ± 3.0 % of Control.

And the “Remaining Activities (% of Control, n = 3)” value (CYP3A4(T); test substance 100 μM)?
The value was 84.8 ± 7.8 % of Control.

What about the “Remaining Activities (% of Control, n = 3)” value (CYP3A4(T); test substance 300 μM) of the same compound?
Its value is 82.1 ± 3.4 % of Control.

What about the “Remaining Activities (% of Control, n = 3)” value (CYP3A4(T); test substance 1000 μM) of the same compound?
The value was 80.0 ± 6.6 % of Control.

What about the “inhibitory effects on CYP1A2, CYP2A6, CYP2B6, CYP2C9, CYP2C19, CYP2D6, and CYP3A4” value [1] of the same compound?
The value was “no inhibitory effects”.

And the “Remaining Activities (% of Control, n = 3)” value (CYP1A2; test substance 0.3 μM)?
Its value is 110.2 ± 20.5 % of Control.

And the “Remaining Activities (% of Control, n = 3)” value (CYP1A2; test substance 1 μM)?
Its value is 103.1 ± 1.5 % of Control.

What about the “Remaining Activities (% of Control, n = 3)” value (CYP1A2; test substance 3 μM) of the same compound?
The value was 101.1 ± 7.5 % of Control.

What about the “Remaining Activities (% of Control, n = 3)” value (CYP1A2; test substance 10 μM) of the same compound?
The value was 94.2 ± 1.8 % of Control.

What about the “Remaining Activities (% of Control, n = 3)” value (CYP1A2; test substance 30 μM) of the same compound?
The value was 94.1 ± 3.0 % of Control.

What about the “Remaining Activities (% of Control, n = 3)” value (CYP1A2; test substance 100 μM) of the same compound?
Its value is 97.2 ± 3.7 % of Control.

What about the “Remaining Activities (% of Control, n = 3)” value (CYP1A2; test substance 300 μM) of the same compound?
The value was 86.7 ± 2.8 % of Control.

What about the “Remaining Activities (% of Control, n = 3)” value (CYP1A2; test substance 1000 μM) of the same compound?
The value was 82.5 ± 12.0 % of Control.
